According to US20110223666A1, “CYTOPLASM EXPOSURE ADDITIVE AND METHOD FOR EXPOSING PARTICLES DELIVERED INTO CELL TO CYTOPLASM FROM ENDOCYTIC VESICLES IN INTACT CELL” (MEDISCOV INC., priority 2008, published 2011):

system: HeLa cells; assay: Exposure of dasatinib-modified particles from endocytic vesicles to cytoplasm, seen as co-localization with EGFP-ABL1 fluorescence; assay type: cell-based; settings: HeLa cells transfected with EGFP-ABL1 with dasatinib-particles; cells fixed by the additive, not observed in a living state
Description: In addition, ABL1 (GenBank Acc. No. NM—198291) which binds to dasatinib was used for another linker constituting a mediator.
EGFP-ABL1 expression vector was produced by a known method (Sambrook & Russell, 2001, Molecular Cloning, Cold Spring Harbor Laboratory Press). After HeLa cells were subcultured to 6,000 cells/well on a 96-well plate, the expression vector DNA was transfected into a cell as mentioned in Example 1.
The particles modified with dasatinib were introduced into the cell transfected with DNA in the following. The cultured HeLa cells were treated with the modified particles according to the following processes:
1) Streptavidin-magnetic particles were mixed with dasatinib-biotin and the mixture was allowed to be reacted with each other. As a result, the particles modified with dasatinib were prepared;
In this embodiment, Olympus fluorescence microscope, FV1000, equipped with the object lens of Uplan Apo 40×/0.85 was used to obtain transmitted images and fluorescent images in the cells.

Molecule | function as a cytoplasm exposure additive (exposure of particles to cytoplasm from endocytic vesicles)
CCO [ethanol] | exposed the particles to cytoplasm from endocytic vesicles effectively
paraformaldehyde | exposed the particles to cytoplasm from endocytic vesicles effectively
CO [methanol] | exposed the particles to cytoplasm from endocytic vesicles effectively
